What was measured:
S. mutans OMZ 176 = experiment: Inhibition of bacterial adhesion to plastic (polypropylene) tubes, S. mutans; conditions: for inhibition at 1000 µg/mL: Streptococcus mutans, OMZ176, 4 h, read-out: Inhibition (%) of adhesion to plastic tubes, S. mutans OMZ 176; for Inhibition (%) of adhesion to plastic tubes, S. mutans OMZ 176: 1 mg/ml, 4 h
S. sanguis OMZ 9 [1] = experiment: microbe, parasite or virus in culture; conditions: Streptococcus, OMZ9, 4 h, read-out: Inhibition (%) of adhesion to plastic tubes, S. sanguis OMZ 9
A. viscosus OMZ 105 [2] = experiment: microbe, parasite or virus in culture; conditions: Actinomyces viscosus, OMZ105, 4 h, read-out: Inhibition (%) of adhesion to plastic tubes, A. viscosus OMZ 105
A. viscosus OMZ 105 [3] = conditions: for Inhibition (%) of adhesion to plastic tubes, A. viscosus OMZ 105: 1 mg/ml, 4 h; for Inhibitory effect on adhesion to plastic tubes (in words), A. viscosus OMZ 105: preliminary tests
S. sanguis OMZ 9 [4] = conditions: for Inhibition (%) of adhesion to plastic tubes, S. sanguis OMZ 9: 1 mg/ml, 4 h; for Inhibitory effect on adhesion to plastic tubes (in words), S. sanguis OMZ 9: preliminary tests
A. viscosus OMZ 206 = experiment: Inhibition of bacterial adhesion to plastic (polypropylene) tubes, A. viscosus OMZ 206; conditions: Actinomyces viscosus, OMZ206, 4 h, read-out: Inhibition (%) of adhesion to plastic tubes, A. viscosus OMZ 206
A. naeslundii ATCC 12104 = conditions: desialylated human erythrocytes (A+); no control of bacterial growth phase; none = no inhibition up to 20 mg/ml
A. viscosus OMZ 105 [5] = test system: A. viscosus OMZ 105

O=C[C@H](O)[C@@H](O)[C@@H](O)[C@H](O)CO [Galactose]
inhibition at 1000 µg/mL (S. mutans OMZ 176): 4% | inhibition at 1000 µg/mL (S. sanguis OMZ 9 [1]): 12% | inhibition at 1000 µg/mL (A. viscosus OMZ 105 [2]): 12%

Polylysine
Inhibition (%) of adhesion to plastic tubes, A. viscosus OMZ 105 (A. viscosus OMZ 105 [3]): 46% | Inhibition (%) of adhesion to plastic tubes, S. mutans OMZ 176 (S. mutans OMZ 176): 30% | Inhibition (%) of adhesion to plastic tubes, S. sanguis OMZ 9 (S. sanguis OMZ 9 [4]): 12%

Polyglutamic acid
Inhibition (%) of adhesion to plastic tubes, A. viscosus OMZ 105 (A. viscosus OMZ 105 [3]): 22% | Inhibition (%) of adhesion to plastic tubes, S. mutans OMZ 176 (S. mutans OMZ 176): 20% | Inhibition (%) of adhesion to plastic tubes, S. sanguis OMZ 9 (S. sanguis OMZ 9 [4]): 6%

OC[C@H]1O[C@@H](O[C@H]2[C@H](O)[C@@H](O)C(O)O[C@@H]2CO)[C@H](O)[C@@H](O)[C@H]1O (stereo partly shown) [Lactose]
inhibition at 1000 µg/mL (A. viscosus OMZ 206): 15% | inhibition at 1000 µg/mL (S. mutans OMZ 176): 4% | inhibition at 1000 µg/mL (S. sanguis OMZ 9 [1]): 12% | Minimum concentration resulting in complete inhibition of hemagglutination, A. naeslundii ATCC 12104 (A. naeslundii ATCC 12104): none | inhibition at 1000 µg/mL (A. viscosus OMZ 105 [2]): 14% | Minimum concentration resulting in complete inhibition of hemagglutination, expressed in galactoside equivalents/ml (A. viscosus OMZ 105 [5]; A. viscosus OMZ harvested in the exponential phase, desialylated human erythrocytes (A+)): > 10 mg/mL | Minimum concentration resulting in complete inhibition of hemagglutination, expressed in dry weight/ml (A. viscosus OMZ 105 [5]; A. viscosus OMZ harvested in the exponential phase, desialylated human erythrocytes (A+), none = no inhibition up to 20 mg/ml): none | Minimum concentration resulting in complete inhibition of hemagglutination, A. viscosus OMZ 105 (A. viscosus OMZ 105 [5]; desialylated human erythrocytes (A+), no control of bacterial growth phase, none = no inhibition up to 20 mg/ml): none | Inhibition of hemagglutinations governed by type 2 pili (in words) (A. viscosus OMZ 105 [5]; summary of Tables I and II): completely ineffective

COC1OC(CO)C(O)C(O)C1O (stereo not drawn) [Methyl α mannoside]
Inhibition (%) of adhesion to plastic tubes, A. viscosus OMZ 105 (A. viscosus OMZ 105 [3]): 10% | Inhibition (%) of adhesion to plastic tubes, S. mutans OMZ 176 (S. mutans OMZ 176): 3% | Inhibition (%) of adhesion to plastic tubes, S. sanguis OMZ 9 (S. sanguis OMZ 9 [4]): 11%

O=C[C@H](O)[C@@H](O)[C@H](O)[C@H](O)CO [glucose]
Inhibitory effect on adhesion to plastic tubes (in words), A. viscosus OMZ 105 (A. viscosus OMZ 105 [3]): nonactivity | Inhibitory effect on adhesion to plastic tubes (in words), S. sanguis OMZ 9 (S. sanguis OMZ 9 [4]): nonactivity

NCC(=O)O [glycine]
Inhibitory effect on adhesion to plastic tubes (in words), A. viscosus OMZ 105 (A. viscosus OMZ 105 [3]): nonactivity | Inhibitory effect on adhesion to plastic tubes (in words), S. sanguis OMZ 9 (S. sanguis OMZ 9 [4]): nonactivity

From patent publication US4992420A, “Dental anti-plaque and anti-caries agent” (priority 1987, dated 1991)
